Reference: US20260041694A1, “Udonitrectag For Topical Use In The Treatment Of Dermatological Diseases” (MIMETECH S.R.L., priority 2022, published 2026)

What was measured:
[1] = test system: human keratinocytes (HACAT cell line); assay: In vitro wound healing model, scratched keratinocyte monolayer; assay type: cell-based; conditions: 50 μM MT8, compared to control medium
Procedure: To evaluate whether MT8 is able to induce faster healing of injured human keratinocytes (HACAT cell line) monolayers, an in vitro “wound healing” model was used. HACAT cells were seeded in 6-well culture dishes and grown to 90%-95% confluency. A standardized wound was created by scratching the HACAT cell monolayer with a sterile micropipette tip under an inverted microscope. Then, the cells were washed with PBS and treated with 50 μM MT8 or 4 nM NGF, and images of the wound healing process were recorded at different time points.

[2] = test system: Human Umbilical Vein Endothelial Cells (HUVECs); assay: In vitro AGE-induced endothelial dysfunction, ATP content by CellTiter Glo; assay type: cell-based; conditions: 20 µM MT8; HUVECs on ECM-AGE-coated plates, 4 days
Procedure: BSA-AGE and ECM-AGE were produced by Maillard reaction and Amadori rearrangement and used to evaluate oxidative stress and apoptosis process induced by AGEs in endothelial cell cultures.
To evaluate whether MT8 is able to counteract AGE-induced endothelial cell dysfunction, Human Umbilical Vein Endothelial Cells (HUVECs) were seeded on ECM-AGE-coated plates and incubated with complete growth medium, in the presence or absence of 20 µM MT8, or 2 nM NGF+2 nM BDNF for 4 days. The cells were then lysed with 100 µL of CellTiter Glo, which allows for ATP release from the cells. The ATP content (directly proportional to cell viability) was measured by luciferase assay.

[3] = test system: psoriasis lesions on the calves of both legs; assay: Treatment of psoriasis in a patient; assay type: in vivo, human; conditions: one patient
Description: A patient diagnosed with psoriasis having lesions on the calves of both legs underwent the following treatment:
• FAGRON: galenic preparation (0.05% clobetasol propionate, 10% urea in occluvan q.s. to 100%)

skin lesions / wounds = assay: Topical treatment of skin lesions and wounds in patients (Examples 19-29); assay type: in vivo, human; conditions: topical application
Description: Inoperable antibiotic multi-resistance. […] The jagged edges of the lesion are erythematous and infected. The periwound skin is erythematous and edematous, with erythema extending to the malleolar area. The lesion is lightly exuding, with foul-smelling, serous exudate. Contaminated/infected wound. When changing the dressing, the pain expressed is equal to 8 (VAS pain scale); there is still discomfort and sometimes pain even when the dressing is not changed. Complex wound due to comorbidities. • Treatment with Udonitrectag: Wound cleaning performed with sterile saline solution (0.9% sodium chloride) and Microdacyn, followed by Urgotul and finally 1% Udonitrectag gel-cream, covered with a light dressing; 2 dressing changes per week for a total of 5 dressings with 1% Udonitrectag gel-cream.

male C57BL/6 mice = assay: In vivo model of androgenetic alopecia (DHT-injected mice); conditions: Udonitrectag 100 μM in PBS, topical twice a day for 2 weeks; vs vehicle
Procedure: Udonitrectag was studied in an in vivo model of androgenetic alopecia.
For this purpose, male C57BL/6 mice were shaved with an animal clipper at 8 weeks of age, when all follicles are in the telogen phase. After depilation, 4 mg of DHT (dissolved in 100 μL of ethanol) were injected subcutaneously into the back of each animal. The mice were then divided into two groups: vehicle-treated and treated with Udonitrectag 100 μM in PBS. Udonitrectag 100 μM solution, or vehicle (PBS only) were applied topically twice a day for 2 weeks and hair growth was recorded at the beginning and at the end of treatment.

## (1S,4R,5R,7S)-3,4-dibenzyl-2-oxo-6,8-dioxa-3-azabicyclo[3.2.1]octane-7-carboxylic acid lysine salt [Udonitrectag]
[1]
  wound repair process (wound distances as a function of time): induces a faster repair process
[2]
  endothelial cell viability (ATP content): able to maintain endothelial cell viability
[3]; left and right leg, both legs last treated with Udonitrectag 0.5% gel-cream
  psoriasis status at skin examination two years after the end of the treatment: completely healed
[3]; topical, Udonitrectag as 0.5% gel-cream, regimen per leg over days 1-30
  improvement of psoriatic lesions during treatment: produced visible improvements in the lesions
Skin lesions / wounds
  healing of skin lesions incurable with other treatments (FIGS. 6-16): healing of severe skin lesions
Male C57BL/6 mice
  hair regrowth: induces hair regrowth much faster and more intensively than vehicle treatment
